pIC50: −log10 of the molar value.
Experiments:
[1] = biological target: Tyrosine-protein kinase SYK (Homo sapiens, UniProt P43405); assay: Inhibition of SYK (unknown origin)
[2] = tested on: Huh-7; assay: Antitumor activity against human HuH7 cells xenografted in nude BALB/c mouse assessed as inhibition of tumor growth at 10 mg/kg bid for 14 days and measured twice per week relative to untreated control; format: functional; details: Huh-7, 336 h, read-out: TGI
[3] = biological target: High affinity nerve growth factor receptor (Homo sapiens, UniProt P04629); assay: Inhibition of TRKA (unknown origin)
[4] = biological target: Hepatocyte growth factor receptor (Homo sapiens, UniProt P08581); assay: Inhibition of MET (unknown origin)
[5] = biological target: Receptor-type tyrosine-protein kinase FLT3 (Homo sapiens, UniProt P36888); assay: Inhibition of FLT3 (unknown origin)
[6] = tested on: Hep 3B2; assay: Antitumor activity against human Hep3B cells xenografted in nude BALB/c mouse assessed as inhibition of tumor growth at 30 mg/kg bid for 14 days and measured twice per week relative to untreated control; format: functional; details: 336 h, read-out: TGI
[7] = biological target: Vascular endothelial growth factor receptor 1 (Homo sapiens, UniProt P17948); assay: Inhibition of FLT1 (unknown origin)
[8] = Toxicity in male BALB/c mouse assessed as effect on body weight at 50 to 450 mg/kg/day, ig dosed once daily for 4 weeks followed by rehabilitation for another 28 days; format: organism-based; details: in vivo, po, 672 h
[9] = tested on: Huh-7; assay: cells; details: Homo sapiens, Huh-7, 72 h
[10] = biological target: Epidermal growth factor receptor (Homo sapiens, UniProt P00533); assay: Inhibition of EGFR (unknown origin)
[11] = Toxicity in female BALB/c mouse at 50 to 450 mg/kg/day, ig dosed once daily for 4 weeks followed by rehabilitation for another 28 days; format: organism-based; details: in vivo, po
[12] = AUC in Sprague-Dawley rat at 5 mg/kg, ig measured after 5 mins to 24 hrs by LC-MS analysis; format: ADME, organism-based; set-up: dose 5 mg/kg, time 0.083-24 hr, route […]; details: in vivo, po
[13] = biological target: Insulin receptor (Homo sapiens, UniProt P06213); assay: Inhibition of INSR (unknown origin)
[14] = biological target: Tyrosine-protein kinase JAK2 (Homo sapiens, UniProt O60674); assay: Inhibition of JAK2 (unknown origin)
[15] = biological target: Ephrin type-B receptor 1 (Homo sapiens, UniProt P54762); assay: Inhibition of EphB1 (unknown origin)
[16] = biological target: Fibroblast growth factor receptor 2 (Homo sapiens, UniProt P21802); assay: Inhibition of FGFR2 (unknown origin)
[17] = biological target: Muscle, skeletal receptor tyrosine-protein kinase (Homo sapiens, UniProt O15146); assay: Inhibition of MUSK (unknown origin)
[18] = biological target: ALK tyrosine kinase receptor (Homo sapiens, UniProt Q9UM73); assay: Inhibition of ALK (unknown origin)
[19] = biological target: Proto-oncogene tyrosine-protein kinase receptor Ret (Homo sapiens, UniProt P07949); assay: Inhibition of RET (unknown origin)
[20] = Toxicity in male BALB/c mouse assessed as induction of animal death at 450 mg/kg/day, ig dosed once daily for 4 weeks followed by rehabilitation for another 28 days; format: organism-based; details: in vivo, po, 672 h
[21] = biological target: Tyrosine-protein kinase JAK1 (Homo sapiens, UniProt P23458); assay: Inhibition of JAK1 (unknown origin)
[22] = biological target: Vascular endothelial growth factor receptor 2 (Homo sapiens, UniProt P35968); assay: Inhibition of KDR (unknown origin)
[23] = Toxicity in male BALB/c mouse at 50 to 450 mg/kg/day, ig dosed once daily for 4 weeks followed by rehabilitation for another 28 days; format: organism-based; details: in vivo, po
[24] = biological target: MAP kinase-activated protein kinase 2 (Homo sapiens, UniProt P49137); assay: Inhibition of MAPKAPK2 (unknown origin)
[25] = biological target: Receptor tyrosine-protein kinase erbB-2 (Homo sapiens, UniProt P04626); assay: Inhibition of HER2 (unknown origin)
[26] = biological target: Macrophage-stimulating protein receptor (Homo sapiens, UniProt Q04912); assay: Inhibition of RON (unknown origin)
[27] = tested on: SK-HEP1; assay: Antiproliferative activity against human SKHEP1 cells without FGFR4 gene amplification assessed as inhibition of cell proliferation incubated for 72 hrs by CellTiter-Glo method; format: functional, cell-based; details: SK-HEP1, 72 h
[28] = biological target: Ephrin type-A receptor 1 (Homo sapiens, UniProt P21709); assay: Inhibition of EphA1 (unknown origin)
[29] = biological target: Non-receptor tyrosine-protein kinase TYK2 (Homo sapiens, UniProt P29597); assay: Inhibition of TYK2 (unknown origin)
[30] = biological target: Tyrosine-protein kinase ZAP-70 (Homo sapiens, UniProt P43403); assay: Inhibition of ZAP70 (unknown origin)
[31] = Toxicity in female BALB/c mouse assessed as induction of animal death at 450 mg/kg/day, ig dosed once daily for 4 weeks followed by rehabilitation for another 28 days; format: organism-based; details: in vivo, po, 672 h
[32] = Toxicity in female BALB/c mouse assessed as effect on body weight at 50 to 450 mg/kg/day, ig dosed once daily for 4 weeks followed by rehabilitation for another 28 days; format: organism-based; details: in vivo, po, 672 h
[33] = biological target: Fibroblast growth factor receptor 3 (Homo sapiens, UniProt P22607); assay: Inhibition of FGFR3 (unknown origin)
[34] = tested on: Hep 3B2; assay: Antitumor activity against human Hep3B cells xenografted in nude BALB/c mouse assessed as inhibition of tumor growth at 10 mg/kg bid for 14 days and measured twice per week relative to untreated control; format: functional; details: 336 h, read-out: TGI
[35] = biological target: Angiopoietin-1 receptor (Homo sapiens, UniProt Q02763); assay: Inhibition of TIE2 (unknown origin)
[36] = biological target: Proto-oncogene tyrosine-protein kinase ROS (Homo sapiens, UniProt P08922); assay: Inhibition of ROS (unknown origin)
[37] = biological target: Leukocyte tyrosine kinase receptor (Homo sapiens, UniProt P29376); assay: Inhibition of LTK (unknown origin)
[38] = tested on: Huh-7; assay: Antitumor activity against human HuH7 cells xenografted in nude BALB/c mouse assessed as inhibition of tumor growth at 30 mg/kg bid for 14 days and measured twice per week relative to untreated control; format: functional; details: Huh-7, 336 h, read-out: TGI
[39] = Toxicity in female BALB/c mouse assessed as effect on clinical pathology parameters at 200 to 2000 mg/kg, ig administered as single dose measured after 14 days; format: organism-based; details: in vivo, po, 336 h
[40] = tested on: Huh-7; assay: Antitumor activity against human HuH7 cells xenografted in nude BALB/c mouse assessed as inhibition of tumor growth at 100 mg/kg bid for 14 days and measured twice per week relative to untreated control; format: functional; details: Huh-7, 336 h, read-out: TGI
[41] = biological target: Receptor tyrosine-protein kinase erbB-4 (Homo sapiens, UniProt Q15303); assay: Inhibition of HER4 (unknown origin)
[42] = biological target: Fibroblast growth factor receptor 1 (Homo sapiens, UniProt P11362); assay: Inhibition of FGFR1 (unknown origin)
[43] = biological target: Fibroblast growth factor receptor 4 (Homo sapiens, UniProt P22455); assay: Inhibition of FGFR4 (unknown origin) incubated for 60 mins by caliper microfluidic mobility shift technology based assay
[44] = biological target: Insulin-like growth factor 1 receptor (Homo sapiens, UniProt P08069); assay: Inhibition of IGF1R (unknown origin)

Chain of Angiopoietin-1 receptor (Q02763 whole entry): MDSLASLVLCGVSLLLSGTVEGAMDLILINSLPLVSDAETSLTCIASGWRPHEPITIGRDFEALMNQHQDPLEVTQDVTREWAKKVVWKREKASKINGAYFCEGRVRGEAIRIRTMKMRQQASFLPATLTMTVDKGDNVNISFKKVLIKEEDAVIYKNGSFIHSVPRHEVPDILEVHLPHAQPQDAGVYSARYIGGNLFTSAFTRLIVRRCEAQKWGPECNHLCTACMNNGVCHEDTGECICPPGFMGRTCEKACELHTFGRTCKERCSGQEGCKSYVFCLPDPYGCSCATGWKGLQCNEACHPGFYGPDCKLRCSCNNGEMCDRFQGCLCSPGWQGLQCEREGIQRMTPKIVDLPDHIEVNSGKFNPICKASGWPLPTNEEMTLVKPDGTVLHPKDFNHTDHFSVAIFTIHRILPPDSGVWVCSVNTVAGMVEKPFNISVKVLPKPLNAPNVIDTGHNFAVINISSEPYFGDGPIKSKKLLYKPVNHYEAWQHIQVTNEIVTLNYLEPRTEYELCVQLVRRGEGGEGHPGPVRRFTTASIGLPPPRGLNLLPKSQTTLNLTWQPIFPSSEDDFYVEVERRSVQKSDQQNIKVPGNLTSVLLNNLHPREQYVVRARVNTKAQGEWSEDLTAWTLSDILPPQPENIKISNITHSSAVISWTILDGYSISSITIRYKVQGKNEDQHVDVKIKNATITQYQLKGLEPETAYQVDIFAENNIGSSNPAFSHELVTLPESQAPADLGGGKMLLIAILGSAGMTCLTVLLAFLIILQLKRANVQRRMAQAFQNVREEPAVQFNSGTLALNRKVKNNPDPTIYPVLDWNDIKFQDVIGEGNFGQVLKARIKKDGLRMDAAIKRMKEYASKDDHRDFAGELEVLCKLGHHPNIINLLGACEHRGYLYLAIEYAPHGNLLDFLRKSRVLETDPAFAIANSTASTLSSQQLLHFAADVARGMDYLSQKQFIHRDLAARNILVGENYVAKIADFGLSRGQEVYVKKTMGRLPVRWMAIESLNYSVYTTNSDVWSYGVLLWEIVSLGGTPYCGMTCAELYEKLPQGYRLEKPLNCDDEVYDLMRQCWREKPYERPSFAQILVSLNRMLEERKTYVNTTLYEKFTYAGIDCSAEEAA
Chain of Ephrin type-B receptor 1 (P54762 whole entry): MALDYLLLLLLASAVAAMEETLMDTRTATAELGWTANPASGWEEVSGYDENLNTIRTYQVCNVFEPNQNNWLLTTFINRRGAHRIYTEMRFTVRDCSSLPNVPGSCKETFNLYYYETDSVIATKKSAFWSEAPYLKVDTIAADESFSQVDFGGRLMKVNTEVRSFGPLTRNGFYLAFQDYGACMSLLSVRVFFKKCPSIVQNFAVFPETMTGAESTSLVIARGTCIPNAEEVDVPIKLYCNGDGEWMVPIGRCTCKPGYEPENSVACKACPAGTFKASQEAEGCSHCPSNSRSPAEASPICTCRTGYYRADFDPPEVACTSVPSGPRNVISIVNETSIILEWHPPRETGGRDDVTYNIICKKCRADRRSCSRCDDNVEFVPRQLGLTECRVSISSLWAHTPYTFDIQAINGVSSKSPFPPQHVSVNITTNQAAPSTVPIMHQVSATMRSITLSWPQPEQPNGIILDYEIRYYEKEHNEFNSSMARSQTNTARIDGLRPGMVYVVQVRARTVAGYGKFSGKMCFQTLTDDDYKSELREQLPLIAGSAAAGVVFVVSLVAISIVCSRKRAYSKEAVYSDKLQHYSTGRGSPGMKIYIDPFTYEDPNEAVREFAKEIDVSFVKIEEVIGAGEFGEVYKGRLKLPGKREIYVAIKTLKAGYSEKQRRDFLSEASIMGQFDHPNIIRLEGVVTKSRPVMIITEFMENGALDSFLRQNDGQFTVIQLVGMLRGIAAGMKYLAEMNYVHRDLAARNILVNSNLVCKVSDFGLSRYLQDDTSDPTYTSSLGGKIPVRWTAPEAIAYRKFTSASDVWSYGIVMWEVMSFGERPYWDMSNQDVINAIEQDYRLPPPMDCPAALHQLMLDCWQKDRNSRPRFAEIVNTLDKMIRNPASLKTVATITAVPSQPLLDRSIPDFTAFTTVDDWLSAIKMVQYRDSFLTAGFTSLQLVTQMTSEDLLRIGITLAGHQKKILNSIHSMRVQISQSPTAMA
Chain of ALK tyrosine kinase receptor (Q9UM73 whole entry): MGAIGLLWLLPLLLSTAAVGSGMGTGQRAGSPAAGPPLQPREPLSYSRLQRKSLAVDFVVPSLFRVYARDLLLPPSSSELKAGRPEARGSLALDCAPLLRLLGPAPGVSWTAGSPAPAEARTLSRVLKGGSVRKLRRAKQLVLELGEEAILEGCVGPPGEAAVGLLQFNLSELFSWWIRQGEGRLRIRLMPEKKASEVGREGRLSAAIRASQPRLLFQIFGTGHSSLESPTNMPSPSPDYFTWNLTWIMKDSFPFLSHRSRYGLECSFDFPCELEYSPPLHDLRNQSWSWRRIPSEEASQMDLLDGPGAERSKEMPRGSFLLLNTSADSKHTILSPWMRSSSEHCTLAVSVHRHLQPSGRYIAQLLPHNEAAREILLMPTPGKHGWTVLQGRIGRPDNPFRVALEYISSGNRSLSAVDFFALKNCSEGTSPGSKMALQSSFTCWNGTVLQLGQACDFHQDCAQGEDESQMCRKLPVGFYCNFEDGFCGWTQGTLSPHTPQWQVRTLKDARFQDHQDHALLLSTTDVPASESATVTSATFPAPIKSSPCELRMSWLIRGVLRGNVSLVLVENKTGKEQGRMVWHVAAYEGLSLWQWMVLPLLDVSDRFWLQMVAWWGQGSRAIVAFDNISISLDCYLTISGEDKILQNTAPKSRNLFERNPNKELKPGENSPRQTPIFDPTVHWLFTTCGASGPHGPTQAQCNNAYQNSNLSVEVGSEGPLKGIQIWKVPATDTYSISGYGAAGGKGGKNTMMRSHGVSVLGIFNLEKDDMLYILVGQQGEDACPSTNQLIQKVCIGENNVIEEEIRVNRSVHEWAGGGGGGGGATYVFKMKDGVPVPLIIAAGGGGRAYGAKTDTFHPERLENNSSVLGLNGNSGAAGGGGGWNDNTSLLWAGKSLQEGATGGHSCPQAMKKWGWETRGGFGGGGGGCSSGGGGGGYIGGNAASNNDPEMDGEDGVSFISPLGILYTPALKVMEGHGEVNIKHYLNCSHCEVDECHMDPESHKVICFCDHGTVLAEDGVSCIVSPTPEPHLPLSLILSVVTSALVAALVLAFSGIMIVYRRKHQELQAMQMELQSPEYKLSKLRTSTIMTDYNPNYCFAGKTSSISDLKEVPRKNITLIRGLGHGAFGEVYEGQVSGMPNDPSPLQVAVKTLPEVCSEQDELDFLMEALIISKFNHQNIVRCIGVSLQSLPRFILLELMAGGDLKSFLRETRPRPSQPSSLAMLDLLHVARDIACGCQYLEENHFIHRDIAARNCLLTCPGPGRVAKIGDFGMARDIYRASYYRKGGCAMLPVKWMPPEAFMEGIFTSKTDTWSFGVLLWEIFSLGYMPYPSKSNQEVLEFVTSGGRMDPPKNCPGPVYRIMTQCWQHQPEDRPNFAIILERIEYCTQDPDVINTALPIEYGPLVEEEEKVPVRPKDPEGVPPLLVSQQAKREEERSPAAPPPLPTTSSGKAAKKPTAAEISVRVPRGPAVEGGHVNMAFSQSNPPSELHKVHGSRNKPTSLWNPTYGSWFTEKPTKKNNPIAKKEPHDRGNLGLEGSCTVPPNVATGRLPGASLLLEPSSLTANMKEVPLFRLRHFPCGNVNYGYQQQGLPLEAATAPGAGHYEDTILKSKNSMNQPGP
Chain of Fibroblast growth factor receptor 4 (P22455 whole entry): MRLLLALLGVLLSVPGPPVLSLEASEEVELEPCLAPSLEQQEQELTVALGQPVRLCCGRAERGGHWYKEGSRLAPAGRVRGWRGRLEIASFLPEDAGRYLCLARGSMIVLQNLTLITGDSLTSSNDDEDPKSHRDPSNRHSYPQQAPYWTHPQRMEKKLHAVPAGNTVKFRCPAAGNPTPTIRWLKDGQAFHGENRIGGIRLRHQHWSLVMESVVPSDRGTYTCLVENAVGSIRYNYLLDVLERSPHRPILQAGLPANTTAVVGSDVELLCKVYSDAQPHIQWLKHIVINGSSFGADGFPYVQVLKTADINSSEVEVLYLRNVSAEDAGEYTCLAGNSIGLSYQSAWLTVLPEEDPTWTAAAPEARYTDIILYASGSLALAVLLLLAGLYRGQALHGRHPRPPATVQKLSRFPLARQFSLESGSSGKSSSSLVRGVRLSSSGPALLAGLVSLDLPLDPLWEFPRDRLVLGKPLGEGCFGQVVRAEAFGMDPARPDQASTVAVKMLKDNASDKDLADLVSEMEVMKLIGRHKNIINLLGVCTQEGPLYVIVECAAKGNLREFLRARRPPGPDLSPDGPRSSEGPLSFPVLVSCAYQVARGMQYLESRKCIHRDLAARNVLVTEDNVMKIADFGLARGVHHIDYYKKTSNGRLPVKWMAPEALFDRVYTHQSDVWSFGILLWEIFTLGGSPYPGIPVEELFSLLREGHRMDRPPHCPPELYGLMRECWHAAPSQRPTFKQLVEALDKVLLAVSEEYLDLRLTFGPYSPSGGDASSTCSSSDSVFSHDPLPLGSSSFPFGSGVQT
Chain of MAP kinase-activated protein kinase 2 (P49137 whole entry): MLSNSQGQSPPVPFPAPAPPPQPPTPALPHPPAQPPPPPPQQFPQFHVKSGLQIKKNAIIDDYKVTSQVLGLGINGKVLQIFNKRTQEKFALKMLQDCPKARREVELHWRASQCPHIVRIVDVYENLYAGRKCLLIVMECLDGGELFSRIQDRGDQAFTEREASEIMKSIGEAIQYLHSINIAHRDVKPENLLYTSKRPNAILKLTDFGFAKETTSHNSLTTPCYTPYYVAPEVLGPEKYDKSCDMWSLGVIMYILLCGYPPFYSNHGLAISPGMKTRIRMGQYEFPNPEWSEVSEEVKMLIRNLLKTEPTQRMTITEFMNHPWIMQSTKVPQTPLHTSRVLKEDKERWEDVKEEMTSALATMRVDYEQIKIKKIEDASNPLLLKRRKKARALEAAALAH

`COC[C@@H](C)Nc1cc(NC(=O)N2CCCc3cc(CN4CCCCOC4=O)c(C=O)nc32)ncc1C#N` gave a pIC50 [1] of less than 5.00, an inhibition in vivo at 10 mg/kg [2] of 28.1% and a pIC50 [3] of less than 5.00. For the same compound, the pIC50 [4] was less than 5.00, the pIC50 [5] was less than 5.00 and the inhibition in vivo at 30 mg/kg [6] was 165%. For the same compound, the pIC50 [7] was less than 5.00, the Activity [8] was “Non-Toxic” and the pIC50 [9] was 8.60. The pIC50 [10] was less than 5.00, the NOAEL at 672 h [11] was 150 mg/kg and the AUC [12] was 9460 ng·h/mL. For the same compound, the pIC50 [13] was less than 5.00, the pIC50 [14] was less than 5.00 and the pIC50 [15] was less than 5.00. For the same compound, the pIC50 [16] was less than 5.00, the pIC50 [17] was less than 5.00 and the pIC50 [18] was less than 5.00. The pIC50 [19] was less than 5.00, the Activity [20] was “Non-Toxic” and the pIC50 [21] was less than 5.00. The pIC50 [22] was less than 5.00, the NOAEL at 672 h [23] was 450 mg/kg and the pIC50 [24] was less than 5.00. For the same compound, the pIC50 [25] was less than 5.00, the pIC50 [26] was less than 5.00 and the pIC50 [27] was less than 5.00. The pIC50 [28] was less than 5.00, the pIC50 [29] was less than 5.00 and the pIC50 [30] was less than 5.00. The Activity [31] was “Toxic”, the Activity [32] was “Non-Toxic” and the pIC50 [33] was less than 5.00. It also gave an inhibition in vivo at 10 mg/kg [34] of 126%, a pIC50 [35] of less than 5.00 and a pIC50 [36] of less than 5.00. For the same compound, the pIC50 [37] was less than 5.00, the inhibition in vivo at 30 mg/kg [38] was 62.7% and the Activity [39] was “Non-Toxic”. For the same compound, the inhibition in vivo at 100 mg/kg [40] was 70.8%, the pIC50 [41] was less than 5.00 and the pIC50 [42] was less than 5.00. The pIC50 [43] was 8.82 and the pIC50 [44] was less than 5.00.
